Assay results from ChEMBL document CHEMBL1201861, “Genomics of Drug Sensitity in Cancer screening data, Wellcome Trust Sanger Institute”.

system: HC-1; assay: cells; type: functional, cell-based, Homo sapiens; details: Homo sapiens, HC-1;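 also: growth inhibition of HC-1 cells measured by a cell viability assay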
Description: SANGER: Inhibition of human HC-1 cell growth in a cell viability assay.

SMILES	IC50 [µM]
COc1cc(-c2nn([C@H]3CC[C@H](N4CCN(C(C)=O)CC4)CC3)c3ncnc(N)c23)ccc1NC(=O)c1cc2ccccc2n1C	3.19

system: CGTH-W-1; assay: cells; type: functional, cell-based, Homo sapiens; details: Homo sapiens, CGTH-W-1;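 also: growth inhibition of human CGTH-W-1 cells measured by cell viability assay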
Description: SANGER: Inhibition of human CGTH-W-1 cell growth in a cell viability assay.

SMILES	IC50 [µM]
COc1cc(-c2nn([C@H]3CC[C@H](N4CCN(C(C)=O)CC4)CC3)c3ncnc(N)c23)ccc1NC(=O)c1cc2ccccc2n1C	> 5.12

system: OVCAR-4; assay: cells; type: functional, cell-based, Homo sapiens; details: Homo sapiens, OVCAR-4;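 also: growth inhibition of human OVCAR-4 cells, measured with a cell viability assay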
Description: SANGER: Inhibition of human OVCAR-4 cell growth in a cell viability assay.

SMILES	IC50 [nM]
COc1cc(-c2nn([C@H]3CC[C@H](N4CCN(C(C)=O)CC4)CC3)c3ncnc(N)c23)ccc1NC(=O)c1cc2ccccc2n1C	1040

system: MSTO-211H; assay: cells; type: functional, cell-based, Homo sapiens; details: Homo sapiens, MSTO-211H
Description: SANGER: Inhibition of human MSTO-211H cell growth in a cell viability assay.

SMILES	IC50 [µM]
COc1cc(-c2nn([C@H]3CC[C@H](N4CCN(C(C)=O)CC4)CC3)c3ncnc(N)c23)ccc1NC(=O)c1cc2ccccc2n1C	> 5.12

system: NOMO-1; assay: cells; type: functional, cell-based, Homo sapiens; details: Homo sapiens, NOMO-1;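 also: growth inhibition of human NOMO-1 cells measured by a cell viability assay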
Description: SANGER: Inhibition of human NOMO-1 cell growth in a cell viability assay.

SMILES	IC50 [µM]
COc1cc(-c2nn([C@H]3CC[C@H](N4CCN(C(C)=O)CC4)CC3)c3ncnc(N)c23)ccc1NC(=O)c1cc2ccccc2n1C	> 5.12

system: HCC2157; assay: cells; type: functional, cell-based, Homo sapiens; details: Homo sapiens, HCC2157;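 also: growth inhibition of the cancer cell line, read out as cell viability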
Description: SANGER: Inhibition of human HCC2157 cell growth in a cell viability assay.

SMILES	IC50 [µM]
COc1cc(-c2nn([C@H]3CC[C@H](N4CCN(C(C)=O)CC4)CC3)c3ncnc(N)c23)ccc1NC(=O)c1cc2ccccc2n1C	> 5.12

system: MOLT-16; assay: cells; type: functional, cell-based, Homo sapiens; details: Homo sapiens, MOLT-16;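 also: growth inhibition of human MOLT-16 cells, read out with a cell viability assay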
Description: SANGER: Inhibition of human MOLT-16 cell growth in a cell viability assay.

SMILES	IC50 [µM]
COc1cc(-c2nn([C@H]3CC[C@H](N4CCN(C(C)=O)CC4)CC3)c3ncnc(N)c23)ccc1NC(=O)c1cc2ccccc2n1C	> 5.12

system: NCI-H1650; assay: cells; type: functional, cell-based, Homo sapiens; details: Homo sapiens, NCI-H1650;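 also: growth inhibition of human NCI-H1650 cells measured by a cell viability assay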
Description: SANGER: Inhibition of human NCI-H1650 cell growth in a cell viability assay.

SMILES	IC50 [µM]
COc1cc(-c2nn([C@H]3CC[C@H](N4CCN(C(C)=O)CC4)CC3)c3ncnc(N)c23)ccc1NC(=O)c1cc2ccccc2n1C	> 5.12

system: LS-1034; assay: cells; type: functional, cell-based, Homo sapiens; details: Homo sapiens, LS-1034
Description: SANGER: Inhibition of human LS-1034 cell growth in a cell viability assay.

SMILES	IC50 [µM]
COc1cc(-c2nn([C@H]3CC[C@H](N4CCN(C(C)=O)CC4)CC3)c3ncnc(N)c23)ccc1NC(=O)c1cc2ccccc2n1C	> 5.12

system: COLO-824; assay: cells; type: functional, cell-based, Homo sapiens; details: Homo sapiens, COLO-824
Description: SANGER: Inhibition of human COLO-824 cell growth in a cell viability assay.

SMILES	IC50 [µM]
COc1cc(-c2nn([C@H]3CC[C@H](N4CCN(C(C)=O)CC4)CC3)c3ncnc(N)c23)ccc1NC(=O)c1cc2ccccc2n1C	> 5.12

system: IA-LM; assay: cells; type: functional, cell-based, Homo sapiens; details: Homo sapiens, IA-LM;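 also: cell viability assay measuring growth inhibition of human IA-LM cells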
Description: SANGER: Inhibition of human IA-LM cell growth in a cell viability assay.

SMILES	IC50 [µM]
COc1cc(-c2nn([C@H]3CC[C@H](N4CCN(C(C)=O)CC4)CC3)c3ncnc(N)c23)ccc1NC(=O)c1cc2ccccc2n1C	> 5.12

system: SW 962; assay: cells; type: functional, cell-based, Homo sapiens; details: Homo sapiens, SW 962;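 also: growth inhibition of human SW962 cells, read out by a cell viability assay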
Description: SANGER: Inhibition of human SW962 cell growth in a cell viability assay.

SMILES	IC50 [µM]
COc1cc(-c2nn([C@H]3CC[C@H](N4CCN(C(C)=O)CC4)CC3)c3ncnc(N)c23)ccc1NC(=O)c1cc2ccccc2n1C	> 5.12

system: D283 Med; assay: cells; type: functional, cell-based, Homo sapiens; details: Homo sapiens, D283 Med
Description: SANGER: Inhibition of human D-283MED cell growth in a cell viability assay.

SMILES	IC50 [µM]
COc1cc(-c2nn([C@H]3CC[C@H](N4CCN(C(C)=O)CC4)CC3)c3ncnc(N)c23)ccc1NC(=O)c1cc2ccccc2n1C	> 5.12

system: KP-N-YS; assay: cells; type: functional, cell-based, Homo sapiens; details: Homo sapiens, KP-N-YS;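 also: cell viability assay measuring inhibition of cell line growth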
Description: SANGER: Inhibition of human KP-N-YS cell growth in a cell viability assay.

SMILES	IC50 [µM]
COc1cc(-c2nn([C@H]3CC[C@H](N4CCN(C(C)=O)CC4)CC3)c3ncnc(N)c23)ccc1NC(=O)c1cc2ccccc2n1C	> 5.12

system: HAL-01; assay: cells; type: functional, cell-based, Homo sapiens; details: Homo sapiens, HAL-01;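 also: growth inhibition of human HAL-01 cells, read out with a cell viability assay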
Description: SANGER: Inhibition of human HAL-01 cell growth in a cell viability assay.

SMILES	IC50 [µM]
COc1cc(-c2nn([C@H]3CC[C@H](N4CCN(C(C)=O)CC4)CC3)c3ncnc(N)c23)ccc1NC(=O)c1cc2ccccc2n1C	3.08

system: L-428; assay: cells; type: functional, cell-based, Homo sapiens; details: Homo sapiens, L-428
Description: SANGER: Inhibition of human L-428 cell growth in a cell viability assay.

SMILES	IC50 [µM]
COc1cc(-c2nn([C@H]3CC[C@H](N4CCN(C(C)=O)CC4)CC3)c3ncnc(N)c23)ccc1NC(=O)c1cc2ccccc2n1C	> 5.12

system: A3-KAW; assay: cells; type: functional, cell-based, Homo sapiens; details: Homo sapiens, A3-KAW;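 also: growth inhibition of human A3-KAW cells, read out with a cell viability assay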
Description: SANGER: Inhibition of human A3-KAW cell growth in a cell viability assay.

SMILES	IC50 [µM]
COc1cc(-c2nn([C@H]3CC[C@H](N4CCN(C(C)=O)CC4)CC3)c3ncnc(N)c23)ccc1NC(=O)c1cc2ccccc2n1C	> 5.12

system: MFH-ino; assay: cells; type: functional, cell-based, Homo sapiens; details: Homo sapiens, MFH-ino;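 also: growth inhibition of human MFH-ino cells, read out by a cell viability assay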
Description: SANGER: Inhibition of human MFH-ino cell growth in a cell viability assay.

SMILES	IC50 [nM]
COc1cc(-c2nn([C@H]3CC[C@H](N4CCN(C(C)=O)CC4)CC3)c3ncnc(N)c23)ccc1NC(=O)c1cc2ccccc2n1C	1160

system: BB65-RCC; assay: cells; type: functional, cell-based, Homo sapiens; details: Homo sapiens, BB65-RCC;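 also: growth inhibition of the cell line, measured with a cell viability assay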
Description: SANGER: Inhibition of human BB65-RCC cell growth in a cell viability assay.

SMILES	IC50 [µM]
COc1cc(-c2nn([C@H]3CC[C@H](N4CCN(C(C)=O)CC4)CC3)c3ncnc(N)c23)ccc1NC(=O)c1cc2ccccc2n1C	5.06

system: TGW; assay: cells; type: functional, cell-based, Homo sapiens; details: Homo sapiens, TGW;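 also: growth inhibition of human TGW cells, read out with a cell viability assay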
Description: SANGER: Inhibition of human TGW cell growth in a cell viability assay.

SMILES	IC50 [µM]
COc1cc(-c2nn([C@H]3CC[C@H](N4CCN(C(C)=O)CC4)CC3)c3ncnc(N)c23)ccc1NC(=O)c1cc2ccccc2n1C	> 5.12

system: OCUB-M; assay: cells; type: functional, cell-based, Homo sapiens; details: Homo sapiens, OCUB-M;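 also: growth inhibition of the cancer cell line, read out through a cell viability assay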
Description: SANGER: Inhibition of human OCUB-M cell growth in a cell viability assay.

SMILES	IC50 [µM]
COc1cc(-c2nn([C@H]3CC[C@H](N4CCN(C(C)=O)CC4)CC3)c3ncnc(N)c23)ccc1NC(=O)c1cc2ccccc2n1C	5.03

system: NEC8; assay: cells; type: functional, cell-based, Homo sapiens; details: Homo sapiens, NEC8;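 also: growth inhibition of human NEC8 cells, read out by a cell viability assay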
Description: SANGER: Inhibition of human NEC8 cell growth in a cell viability assay.

SMILES	IC50 [µM]
COc1cc(-c2nn([C@H]3CC[C@H](N4CCN(C(C)=O)CC4)CC3)c3ncnc(N)c23)ccc1NC(=O)c1cc2ccccc2n1C	> 5.12

system: BE-13; assay: cells; type: functional, cell-based, Homo sapiens; details: Homo sapiens, BE-13;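 also: growth inhibition of human BE-13 cells, measured with a cell viability assay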
Description: SANGER: Inhibition of human BE-13 cell growth in a cell viability assay.

SMILES	IC50 [µM]
COc1cc(-c2nn([C@H]3CC[C@H](N4CCN(C(C)=O)CC4)CC3)c3ncnc(N)c23)ccc1NC(=O)c1cc2ccccc2n1C	> 5.12
